Measurements: US20140045807A2, “THE USE OF 3-METHOXY-PREGNENOLONE FOR THE PREPARATION OF A DRUG FOR TREATING A TRAUMATIC BRAIN INJURY” (priority 2004, published 2014)

Assays:
[1] = target: purified tubulin and MAP2 (Homo sapiens, UniProt P11137); experiment: MAP2-induced polymerization of microtubules in vitro (optical density at 345 nm); assay type: biochemical; settings: for Activity (increase in optical density at 345 nm): purified tubulin and MAP2, 37° C., GTP; for effect on microtubule polymerization: MAP2 and tubulin with GTP, 37° C.
Sequence of purified tubulin and MAP2 (P11137 whole entry): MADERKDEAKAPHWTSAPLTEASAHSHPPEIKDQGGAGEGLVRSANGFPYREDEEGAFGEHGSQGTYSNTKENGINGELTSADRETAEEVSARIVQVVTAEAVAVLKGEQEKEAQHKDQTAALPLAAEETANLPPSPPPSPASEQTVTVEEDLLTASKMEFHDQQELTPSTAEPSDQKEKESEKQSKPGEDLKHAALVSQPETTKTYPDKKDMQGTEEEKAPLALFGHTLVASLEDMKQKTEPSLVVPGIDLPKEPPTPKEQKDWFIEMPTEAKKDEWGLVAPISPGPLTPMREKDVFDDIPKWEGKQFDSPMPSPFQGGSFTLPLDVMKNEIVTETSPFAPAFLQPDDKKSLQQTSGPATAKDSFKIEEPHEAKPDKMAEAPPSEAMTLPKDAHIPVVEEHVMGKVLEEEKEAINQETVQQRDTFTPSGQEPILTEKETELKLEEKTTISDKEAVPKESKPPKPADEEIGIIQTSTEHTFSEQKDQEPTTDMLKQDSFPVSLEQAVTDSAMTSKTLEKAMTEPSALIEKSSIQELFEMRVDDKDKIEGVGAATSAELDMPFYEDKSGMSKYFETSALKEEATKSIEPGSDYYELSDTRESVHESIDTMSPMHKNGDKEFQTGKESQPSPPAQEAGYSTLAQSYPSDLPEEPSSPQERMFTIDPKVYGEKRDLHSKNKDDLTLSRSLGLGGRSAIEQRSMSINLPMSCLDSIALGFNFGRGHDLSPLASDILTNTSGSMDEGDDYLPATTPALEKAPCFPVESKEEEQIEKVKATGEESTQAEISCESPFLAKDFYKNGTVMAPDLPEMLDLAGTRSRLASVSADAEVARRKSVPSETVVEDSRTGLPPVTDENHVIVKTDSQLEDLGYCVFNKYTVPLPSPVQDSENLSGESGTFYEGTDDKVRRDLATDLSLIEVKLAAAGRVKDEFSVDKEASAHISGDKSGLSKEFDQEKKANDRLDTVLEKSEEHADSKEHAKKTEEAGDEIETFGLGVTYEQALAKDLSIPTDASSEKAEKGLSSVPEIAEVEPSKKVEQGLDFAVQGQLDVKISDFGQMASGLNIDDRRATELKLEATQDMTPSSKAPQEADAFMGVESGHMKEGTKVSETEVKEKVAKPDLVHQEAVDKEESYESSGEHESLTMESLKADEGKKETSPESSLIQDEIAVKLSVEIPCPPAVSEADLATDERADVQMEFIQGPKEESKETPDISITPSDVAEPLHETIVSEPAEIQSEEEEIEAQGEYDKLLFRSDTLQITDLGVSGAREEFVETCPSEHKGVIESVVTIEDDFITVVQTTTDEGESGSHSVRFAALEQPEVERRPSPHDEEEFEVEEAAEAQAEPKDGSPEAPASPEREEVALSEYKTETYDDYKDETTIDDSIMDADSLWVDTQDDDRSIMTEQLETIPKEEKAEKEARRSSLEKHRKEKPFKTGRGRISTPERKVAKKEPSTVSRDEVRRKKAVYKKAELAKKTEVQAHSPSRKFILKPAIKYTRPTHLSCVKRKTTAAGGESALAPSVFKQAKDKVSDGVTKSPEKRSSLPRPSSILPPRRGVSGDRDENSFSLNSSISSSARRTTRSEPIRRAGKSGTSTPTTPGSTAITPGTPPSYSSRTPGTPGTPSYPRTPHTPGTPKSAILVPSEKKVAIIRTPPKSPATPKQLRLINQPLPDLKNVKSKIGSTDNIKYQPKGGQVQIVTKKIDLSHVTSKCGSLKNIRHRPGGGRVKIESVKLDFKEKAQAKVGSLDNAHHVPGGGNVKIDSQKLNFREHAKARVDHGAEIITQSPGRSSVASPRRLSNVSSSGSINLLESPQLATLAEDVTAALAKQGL
Experimental: Purified MAP2 and tubulin are mixed in the presence of GTP at 4° C. in a spectrophotometer cuvette. Polymerization is induced by heating at 37° C. and is followed by the increase in optical density (OD) which indicates the quantity of polymers formed.
This in vitro test measures the effect of molecules on the MAP2-induced polymerization of microtubules. This polymerization occurs when MAP2 proteins and tubulin are mixed at adequate concentrations in the presence of GTP. It is accompanied by an increase in optical density measured at 345 nm for 15 to 30 minutes with a UNICON spectrophotometer thermostated at 37° C. (FIG. 1).
Activity is measured by the increase in optical density at 345 nm of a mixture of purified tubulin and MAP2, incubated at 37° C. in the presence of GTP.

[2] = target: MAP2 (Homo sapiens, UniProt P11137); experiment: Binding (affinity) by displacement of PREG-^3H
Sequence of MAP2 (P11137 whole entry): as above
Experimental: Binding (affinity) is measured by the displacement of PREG-^3H.

[3] = tested on: PC12 cells; experiment: Neuritic growth / sprouting in PC12 cells with NGF; assay type: cell-based, rat; settings: 30 μM, after 3 days of culture, with NGF
Experimental: Each molecule was tested in three culture wells. Measurements were taken for 200 cells per well using Scion Image software.
Neurite (neurite) length was measured for 200 cells per well after 2, 5, and 8 days of culture.
Stimulation of neuritic sprouting is conducted on PC12 cells differentiated in the presence of NGF (10 ng/ml) and the steroid being tested (30 μM) for 3 days. For each condition, the average length of the longest 200 neurites in each cell is measured simultaneously for 3 cultures.

[4] = tested on: PC12 cells; experiment: Retraction of neurites induced by nocodazole; assay type: cell-based, rat; settings: pretreated one hour at 30 μM, nocodazole 15 minutes
Excerpt: FIG. 5: Retraction of neurites (neurites) induced by nocodazole.
Nocodazole is a microtubule depolymerizing agent. Its addition to PC12 cell cultures, differentiated in the presence of NGF, causes neurites to retract as a result of the depolymerization of their microtubules.

[5] = tested on: human neuroblastoma HS-SY5Y cells; experiment: Cytotoxicity of okadaic acid, steroid protection (LDH release); assay type: cell-based; settings: 24 hours, simultaneous addition, increasing concentrations
Excerpt: FIG. 6: Toxicity of okadaic acid. Steroid protection. […] Cell death was indicated by the release of lactate dehydrogenase (LDH) in the culture medium.
Okadaic acid is a protein phosphatase inhibiter. Thus, the hyperphosphorylation of tau protein is implicated in microtubule depolymerization and in human neuroblastoma HS-SY5Y cell death. The exposure of SY5Y cell cultures to okadaic acid does in fact cause significant cell death.

[6] = tested on: PC12 cell line; experiment: Cellular toxicity test; assay type: cell-based, rat; settings: concentrations as high as solubility limits (approximately 50 μM)
Experimental: Cellular toxicity tests are carried out routinely on the PC12 cell line.

[7] = tested on: transgenic mice expressing the longest human tau protein isoform; experiment: RotaRod test in transgenic mice expressing the longest human tau protein isoform; assay type: in vivo, mouse; settings: subcutaneous implant releasing 0.38 mg of steroid per day for 90 days
Excerpt: FIG. 8: Effect of molecule 43B on the motor incoordination of transgenic mice expressing the longest isoform of human tau protein in their neurons. […] The maximum speed of rotation of the RotaRod drum before the […] falls is a measurement of motor coordination (higher values correspond to a better treatment effect).
In order to evaluate the therapeutic potential of 43B to treat Alzheimer-type neurodegenerative diseases, a homozygous transgenic line of mice, such as described by Götz (EMBO J. 1995; 14(7):1304-13), can be used.
These mice express the longest human tau protein isoform. They present symptoms of neurological dysfunction expressed as muscular weakness and a reduction in motor coordination which correlate histologically with the appearance of abnormal neurites and hyperphosphorylated tau proteins as is seen in Alzheimer's disease. This pathological phosphorylation decreases the affinity of tau for microtubules and favors its aggregation.
A breeding program was undertaken at Bicêtre and genotyping made it possible to select mice homozygous for the transgene. […] These implants released 0.38 mg of steroid per day for 90 days. The progression of motor incoordination was followed by repeated RotaRod tests.

[8] = tested on: α-tubulin forms (Tyr/Glu-Tub, Acet-Tub) in rat hippocampus; experiment: Microtubule dynamics in rat hippocampus after single administration; assay type: in vivo; settings: 10 mg/kg subcutaneously, 3 h following injection
Excerpt: Mean±SEM, n=6 per group. **p<0.01, *[…] vs sesame oil.
The effects produced by neurosteroids were compared with those produced by acute administration of the antidepressant drug fluoxetine (selective serotonin reuptake inhibitor; SSRI).

[9] = tested on: Sprague Dawley rats in the FST; experiment: Forced swimming test (FST); assay type: in vivo, rat; settings: 10 mg/kg subcutaneously, 24, 5, 1 h before testing
Excerpt: (A) 3-methoxy-PREG (43B) decreased rat immobility in the FST showing antidepressant activity. Results are expressed as mean±SEM (n=6-14). One-way ANOVA: Treatment (F5, 46: 4.30 P<0.01). ***P<0.001, *P<0.05 vs. water and sesame oil (Fisher LSD test). […] Results are expressed as mean±SEM (n=6-14). One-way ANOVA: Treatment (F5, 46: 3.57 P<0.01). **P<0.01, *P<0.05 vs. water and sesame oil (Fisher LSD test). […] One-way ANOVA: Treatment (F5, 46: 3.57 P<0.01). **P<0.01, *P<0.05 vs. water and sesame oil (Fisher LSD test).
Drugs were administered following the traditional dosing regimen used in the FST consisting of three injections: 24, 5, 1 h before testing.
The FST is currently the most widely used animal model for assessing depression related behavior and antidepressant drug activity in rodents (Cryan et al., Neubiorev. 2005). Rats are placed in an inescapable cylinder of water where they develop an immobile posture believed to reflect a “depressive”-like state. The time rats spend immobile is decreased by drugs exerting antidepressant activity.
Additional behaviors can be detected in the FST; namely, climbing and swimming. It has been shown that swimming behavior is sensitive to SSRIs such as fluoxetine whereas climbing is sensitive to norepinephrine re-uptake inhibitors (NRI) such as desipramine.

[10] = target: T1, human progesterone receptor(PR) (Homo sapiens, UniProt P06401); experiment: Test of progesterone receptor agonist activity (luciferase transactivation, HEK293T); assay type: cell-based; settings: increasing amounts, 24 hours
T1 construct: expressed in transfected cells; host or cells: HEK293T
T1 sequence (P06401 1-933): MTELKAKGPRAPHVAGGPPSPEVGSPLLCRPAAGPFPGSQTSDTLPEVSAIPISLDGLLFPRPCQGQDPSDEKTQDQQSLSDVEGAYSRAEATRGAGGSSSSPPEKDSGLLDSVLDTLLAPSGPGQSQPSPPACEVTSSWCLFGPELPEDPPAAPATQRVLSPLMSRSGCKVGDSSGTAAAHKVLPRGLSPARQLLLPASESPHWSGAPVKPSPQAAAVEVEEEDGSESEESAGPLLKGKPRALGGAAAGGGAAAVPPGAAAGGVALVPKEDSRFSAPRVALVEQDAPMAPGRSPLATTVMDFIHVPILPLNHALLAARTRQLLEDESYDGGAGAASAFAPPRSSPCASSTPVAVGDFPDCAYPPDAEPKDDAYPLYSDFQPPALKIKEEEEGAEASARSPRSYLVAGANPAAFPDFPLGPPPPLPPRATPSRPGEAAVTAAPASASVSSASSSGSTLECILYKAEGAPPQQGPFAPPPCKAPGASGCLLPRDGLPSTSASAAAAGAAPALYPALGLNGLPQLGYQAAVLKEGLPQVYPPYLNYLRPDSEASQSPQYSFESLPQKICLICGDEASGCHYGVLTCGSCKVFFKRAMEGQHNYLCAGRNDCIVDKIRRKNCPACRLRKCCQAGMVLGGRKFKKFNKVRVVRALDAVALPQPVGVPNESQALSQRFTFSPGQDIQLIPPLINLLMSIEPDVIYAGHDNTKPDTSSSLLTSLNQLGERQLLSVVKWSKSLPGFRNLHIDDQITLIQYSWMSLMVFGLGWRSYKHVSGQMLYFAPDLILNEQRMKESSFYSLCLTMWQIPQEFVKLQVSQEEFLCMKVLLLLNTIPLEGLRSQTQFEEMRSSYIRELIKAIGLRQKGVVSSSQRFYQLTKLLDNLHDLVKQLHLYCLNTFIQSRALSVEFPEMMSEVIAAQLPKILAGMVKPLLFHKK
Experimental: The main experimental setting used is the following: HEK293T cells were transiently transfected, using calcium phosphate precipitation technology, with expression vectors pSG5hPR (which permits expression of human progesterone receptor(PR)), pFC31-luc (contains the luciferase gene under the control of the MMTV promoter, which is in turn activated by binding of a progestin to progesterone receptor) and pcbetagal (which permits expression of betagalactosidase), and cultured during 24 hours with increasing amounts of various compositions: • 1. […] Test of progesterone receptor […] activity: transfected cells were cultured with progesterone (1 nM) and increasing amounts of RU486 (a well-known progesterone receptor antagonist) or 3-methoxy-pregnenolone. • With this setting, a compound with progesterone receptor antagonist activity competes with progesterone for the occupation of progesterone receptor and results in a progressive loss of transactivation activity when the amount of this compound is increased compared to progesterone.

[11] = 40 μM, compared to control kinetics with solvent alone

| Compound | Activity (increase in optical density at 345 nm) [1] | Affinity (index of binding) [2] | other results |
| --- | --- | --- | --- |
| CC(=O)[C@H]1[C@H](C)C[C@H]2[C@@H]3CC[C@H]4C[C@@H](O)CC[C@]4(C)[C@H]3CC[C@@]21C [3β-hydroxy-5α-pregnane-20-one-16α-methyl] | 53% of PREG | 57% of PREG |  |
| CO[C@H]1CC[C@@]2(C)[C@@H](CC[C@@H]3[C@@H]2CC[C@]2(C)[C@@H](C(C)=O)CC[C@@H]32)C1 [3β-methoxy-5α-pregnane-20-one] | 10% of PREG | 87% of PREG |  |
| CO[C@H]1CC[C@@]2(C)C(CCC3C2CC[C@@]2(C)C3CC[C@@H]2[C@@H](C)O)C1 (stereo partly drawn) [3β-methoxy-5α-pregnane-20β-ol] | 65% of PREG | 65% of PREG |  |
| CO[C@H]1CC[C@@]2(C)C(=CC[C@H]3C4=CC[C@H](C(C)=O)[C@@]4(C)CC[C@@H]32)C1 [3β-methoxy-pregna-5,14-diene-20-one] | 50% of PREG | 102% of PREG |  |
| CO[C@H]1CC[C@@]2(C)C(=CC[C@@H]3[C@@H]2CC[C@@]2(C)[C@H]3CC[C@@]2(C(C)=O)C(Cl)Cl)C1 [3β-methoxy-pregna-5-ene-20-one-17α-dichloromethyl] | 113% of PREG | 53% of PREG |  |
| CC(=O)[C@H]1CC[C@H]2[C@@H]3CC=C4C[C@@H](O)CC[C@]4(C)[C@H]3CC[C@]12C [PREG, Pregnenolone] | 100% of PREG |  | Lag time of microtubule polymerization [1, 11]: decreased; polymerization rate and quantity of microtubules [1, 11]: clearly increase; effect on microtubule polymerization [1]: activates microtubule polymerization; increase in the average length of the neurites [3]: 60%; resistance of neurites to nocodazole [4]: makes the neurites resistant to nocodazole; cell death caused by okadaic acid (LDH release) [5]: Cell death is decreased; cellular toxicity [6]: do not demonstrate toxicity; motor dysfunction (RotaRod) [7]: Only the 3-methoxy-PREG had a beneficial effect; Acet-Tub (marker of stable microtubules) [8]: significantly decreased; rat climbing behavior in the FST [9]: not changed; rat swimming in the FST [9]: significantly increased |
| CC(=O)[C@@]12C[C@@H]1C[C@H]1[C@@H]3CC=C4C[C@@H](O)CC[C@]4(C)[C@H]3CC[C@@]12C [PREG-16α,17α-methylene] | 49% of PREG | 62% of PREG |  |
| CC(=O)[C@H]1[C@H](C)C[C@H]2[C@@H]3CC=C4C[C@@H](O)CC[C@]4(C)[C@H]3CC[C@@]21C [PREG-16α-methyl] | 70% of PREG | 80% of PREG |  |
| CC(=O)[C@H]1[C@@H](C)C[C@H]2[C@@H]3CC=C4C[C@@H](O)CC[C@]4(C)[C@H]3CC[C@@]21C [PREG-16β-methyl] | 67% of PREG | 63% of PREG |  |
| CC(=O)O[C@H](C)[C@H]1CC[C@H]2[C@@H]3CC=C4C[C@@H](O)CC[C@]4(C)[C@H]3CC[C@]12C [Pregna-5-ene-3β,20β-diol-20-acetate] | 108% of PREG | 60% of PREG |  |
| CNCCC(Oc1ccc(C(F)(F)F)cc1)c1ccccc1 (stereo not shown) [fluoxetine] |  |  | Acet-Tub (marker of stable microtubules) [8]: tendency to increase; Tyr/Glu-Tub ratio (index of microtubule dynamics) [8]: did not change |
| CC(=O)[C@H]1CC[C@H]2[C@@H]3CCC4=CC(=O)CC[C@]4(C)[C@H]3CC[C@]12C [progesterone, reference compound] |  |  | effect on microtubule polymerization [1]: do not stimulate polymerization; progesterone receptor agonist (transactivation) activity [10]: permits a transactivation activity |
| PREG-16α,17α-epoxy | 54% of PREG | 41% of PREG |  |
| pregnenolone sulfate [reference compound] |  |  | effect on microtubule polymerization [1]: do not stimulate polymerization |
